Data reported in patent publication US5919799A, “Imidazothiazole compound” (Nikken Chemicals Co., Ltd., priority 1995, dated 1999).
Structures can show the parent of a compound that is named as a salt.

Legend:
[1] = tested on: VJ-300 cells (multidrug resistant clones of KB cells); assay: In vitro suppression of proliferation of VJ-300 cells by co-administration with vincristine; format: cell-based, Human
Description: As the incubation solution, an Eagle MEM medium (made by Nissui Seiyakusha) containing 10% fetal calf serum (made by Flow Laboratories Co.) and 0.292 mg/ml L-glutamine (made by Flow Laboratories Co.) was used. The action overcoming resistance to an anti-neoplastic agent and effect in enforcing the effect of an anti-neoplastic agent obtained through co-administration of the anti-neoplastic agent doxorubicin (adriamycin, ADM) and the test compounds were tested as follows:
The test cells were suspended in the incubation medium and adjusted to a cell density of about 200 cells/ml. 2 ml portions of the cell suspension were placed in petri dishes and incubated in a carbon dioxide gas incubator (5% CO2, 95% air) at 37° C. for 24 hours. Next, predetermined concentrations of aqueous ADM solutions and dimethyl sulfoxide (DMSO) solutions of predetermined concentrations of the test compounds were added into 5 to 10 μl portions, then incubation was continued for 7 days. After the end of the incubation, the samples were fixed by methanol, Giemsa staining was performed, the number of colonies in each dish was counted, and a volume reaction curve was prepared. This was used to calculate the ADM concentration at a 50% cell survival rate (LD50) and judge the action overcoming resistance to an anti-neoplastic agent and effect in enhancing the effect of an anti-neoplastic agent.
The LD50 concentration of ADM in the ADM control group for KB cells was shown as the resistance degree "1" and the other LD50 concentrations were indexed against this to calculate the resistance degrees. In Table 2, ADM alone (control) is the group administered ADM alone, ADM+Compound 1 is the group co-administered ADM and Compound 1 (1 μg /ml) and so on down to ADM+Compound 19 which is the group co-administered ADM and Compound 19 (1 μg /ml).
A volume reaction curve was prepared and the resistance calculated. In the Tables, VCR alone (control) is the group administered VCR alone, VCR+Compound 1 is the group co-administered VCR and Compound 1(1 μg /ml) and so on down to VCR+Compound 16 which is the group co-administered VCR and Compound 16 (1 μg/ml).

[2] = tested on: VCR resistant murine leukemic (P388/VCR) cells; assay: In vivo effect of overcoming resistance to vincristine in VCR resistant murine leukemia cell bearing mice (intraperitoneal); parameters: species or system CDF1 male mice; details: i.p., 5 days; for Rate of prolongation of life (T/C %): vs non-administered control
Description: (a) 10^6 VCR resistant murine leukemic (P388/VCR) cells were transplanted intraperitoneally to groups of six CDF1 male mice. The compound of the present invention (10 or 100 mg/kg) was suspended in 0.5% sodium carboxymethyl cellulose containing 0.1% Tween 80, while the VCR (100 μg/kg) was dissolved in physiological saline. These were each administered intraperitoneally over 5 days and the mice observed to find the days of survival and the rate of prolongation of life with respect to the control (T/C). The effect in overcoming resistance to an anti-neoplastic agent (T/V) was found from the following formula:
Effect in overcoming resistance to anti-neoplastic agent (T/V%)=(Rate of prolongation of life when co-administering VCR and compound of present invention (T/C%))/(Rate of prolongation of life by VCR alone
In Table 5, "Control" is the non-administered group, VCR alone is the group administered just VCR (100 μg /kg), VCR+Compound 1 is the group co-administered VCR (100 μg /kg) and Compound 1 (100 mg/kg) and so on to VCR+Compound 14* which is the group co-administered VCR (100 μg /kg) and Compound 14 (10 mg/kg).

[3] = Acute toxicity test (a), intraperitoneal, three animals per group; details: mouse, in vivo, ip, ICR male mice, up to 7 days after administration
Description: (a) Animals used: ICR male mice (Charles River Japan), 7 to 8 weeks old, were used three to a group.
Test method: The compound of the present invention was suspended in 0.5% sodium carboxymethyl cellulose(CMC-Na) containing 0.1% Tween 80. […] The survival of the animals was examined up to 7 days after administration, then the Van Der Wearder area method was used to calculate the LD50 value.

[4] = tested on: VCR resistant murine leukemia (P388/VCR) cells; assay: In vivo effect of overcoming resistance with etoposide (VP-16) in P388/VCR bearing mice (intravenous); parameters: species or system CDF1 male mice; details: i.v., five days; for Rate of prolongation of life (T/C %): vs non-administered control
Description: (b) Separately, groups of six CDF1 male mice were intravenously given transplants of 1.2×10^5 VCR resistant murine leukemia (P388/VCR) cells. The compound of the present invention (20 or 40 mg/kg) was dissolved in 0.01N hydrochloric acid. Etoposide (VP-16, 3 mg/kg) was dissolved in a physiological saline solution. These were administered intravenously for five days and the days of survival were found. In the same way as (a), the rate of prolongation of life with respect to the control (T/C) and the effect in overcoming the resistance to an anti-neoplastic agent (T/V) were found. In Table 6, the control is the non-administered group, VP-16 alone is the group administered VP-16 (3 mg/kg) and VP-16+Compound 5 is the group co-administered VP-16 (3 mg/kg) and Compound 5 (40 mg/kg) and so on to VP-16+Compound 16 which is the group co-administered VP-16 (3 mg/kg) and Compound 16 (40 mg/kg).

[5] = Table 3, co-administered VCR and test compound (1 μg/ml), relative to VCR alone in KB = 1
[6] = VCR (100 μg/kg) + compound (100 mg/kg)
[7] = VCR (100 μg/kg) + compound (100 mg/kg), vs VCR alone
[8] = Table 4, co-administered VCR and test compound (1 μg/ml), relative to VCR alone in KB = 1
[9] = VP-16 (3 mg/kg) + compound (40 mg/kg)
[10] = VP-16 (3 mg/kg) + compound (40 mg/kg), vs VP-16 alone
[11] = VP-16 (3 mg/kg) + compound (20 mg/kg)
[12] = VCR (100 μg/kg) + compound (10 mg/kg)

O=C(NN=Cc1c(-c2ccc(-c3ccccc3)cc2)nc2sc3c(n12)CCCC3)c1cccnc1 [Compound 2, 5,6,7,8-tetrahydro-2-biphenyl-3-(3-pyridylcarbonylaminoiminomethyl)imidazo[2,1-b]benzothiazole]
Resistance with VCR, VJ-300 (resistance degree) [1, 5]: 1.6 | Days of survival [2, 6]: 12.67 days | Effect overcoming resistance (T/V %) [2, 7]: 114% | Rate of prolongation of life (T/C %) [2, 6]: 121% | LD50 at 168 h [3]: ≥ 2000 mg/kg

O=C(NN=Cc1c(-c2cccc([N+](=O)[O-])c2)nc2sc3c(n12)CCCC3)c1cccnc1 [Compound 3, 5,6,7,8-tetrahydro-2-(3-nitrophenyl)-3-(3-pyridylcarbonylaminoiminomethyl)imidazo[2,1-b]benzothiazole]
Resistance with VCR, VJ-300 (resistance degree) [1, 5]: 2.7

CCCN1CCCC(C(=O)NN=Cc2c(-c3ccccc3)nc3sc4ccccc4n23)C1 (stereo not shown) [Compound 16, 2-phenyl-3-[N-propyl-3-piperidylcarbonylaminoimino-methyl]imidazo[2,1-b]benzothiazole hydrochloride]
Resistance with VCR, VJ-300 (resistance degree) [1, 8]: 2.6 | Days of survival [4, 9]: 12.7 days | Effect overcoming resistance (T/V %) [4, 10]: 113% | Rate of prolongation of life (T/C %) [4, 9]: 123%

COc1cc(-c2nc3sc4c(n3c2C=NNC(=O)c2cccnc2)CCCC4)cc(OC)c1OC [Compound 4, 5,6,7,8-tetrahydro-2-(3,4,5-trimethoxyphenyl)-3-(3-pyridylcarbonylaminoiminomethyl)imidazo[2,1-b]benzothiazole]
Resistance with VCR, VJ-300 (resistance degree) [1, 5]: 20.9 | Days of survival [2, 6]: 13.28 days | Effect overcoming resistance (T/V %) [2, 7]: 120% | Rate of prolongation of life (T/C %) [2, 6]: 127%

O=C(NN=Cc1c(-c2ccccc2)nc2sc3c(n12)CCCC3)C1CCCN(Cc2ccccc2)C1 (stereo not shown) [Compound 9, 5,6,7,8-tetrahydro-2-phenyl-3-[N-benzyl-3-piperidylcarbonylaminoiminomethyl]imidazo[2,1-b]benzothiazole]
Resistance with VCR, VJ-300 (resistance degree) [1, 8]: 2.5

COc1cc([C@@H]2c3cc4c(cc3[C@@H](O[C@@H]3O[C@@H]5CO[C@@H](C)O[C@H]5[C@H](O)[C@H]3O)[C@H]3COC(=O)[C@H]23)OCO4)cc(OC)c1O [VP-16, Etoposide, reference compound]
Days of survival ([4]; VP-16 alone (3 mg/kg)): 11.2 days | Effect overcoming resistance (T/V %) ([4]; VP-16 alone (3 mg/kg), reference = 100): 100% | Rate of prolongation of life (T/C %) ([4]; VP-16 alone (3 mg/kg)): 109%

CC[C@]1(O)C[C@H]2CN(CCc3c([nH]c4ccccc34)[C@@](C(=O)OC)(c3cc4c(cc3OC)N(C=O)[C@H]3[C@@](O)(C(=O)OC)[C@H](OC(C)=O)[C@]5(CC)C=CCN6CC[C@]43[C@@H]65)C2)C1 [VCR, vincristine, reference compound]
Resistance with VCR, VJ-300 (resistance degree) ([1]; Table 3, VCR alone (Control), relative to KB = 1): 306.6 | Resistance with VCR, VJ-300 (resistance degree) ([1]; Table 4, VCR alone (Control), relative to KB = 1): 843.1 | Days of survival ([2]; VCR alone (100 μg/kg)): 11.08 days | Effect overcoming resistance (T/V %) ([2]; VCR alone (100 μg/kg), reference = 100): 100% | Rate of prolongation of life (T/C %) ([2]; VCR alone (100 μg/kg)): 106%

CN1CCCC(C(=O)NN=Cc2c(-c3ccc([N+](=O)[O-])cc3)nc3sc4c(n23)CCCC4)C1 (stereo not shown) [Compound 10, 5,6,7,8-tetrahydro-2-(4-nitrophenyl)-3-[N-methyl-3-piperidylcarbonylaminoiminomethyl]imidazo[2,1-b]benzothiazole hydrochloride]
Resistance with VCR, VJ-300 (resistance degree) [1, 8]: 8.7 | Days of survival [4, 11]: 12.0 days | Effect overcoming resistance (T/V %) ([4]; VP-16 (3 mg/kg) + compound (20 mg/kg), vs VP-16 alone): 107% | Rate of prolongation of life (T/C %) [4, 11]: 117%

CC(C)N1CCCC(C(=O)NN=Cc2c(-c3ccccc3)nc3sc4c(n23)CCCC4)C1 (stereo not shown) [Compound 13, 5,6,7,8-tetrahydro-2-phenyl-3-[N-isopropyl-3-piperidylcarbonylaminoiminomethyl]imidazo[2,1-b]benzothiazole hydrochloride]
Resistance with VCR, VJ-300 (resistance degree) [1, 8]: 2.0

CN1CCCC(C(=O)NN=Cc2c(-c3ccc(-c4ccccc4)cc3)nc3sc4c(n23)CCCC4)C1 (stereo not shown) [Compound 11, 5,6,7,8-tetrahydro-2-biphenyl-3-[N-methyl-3-piperidylcarbonylaminoiminomethyl]imidazo[2,1-b]benzothiazole hydrochloride]
Resistance with VCR, VJ-300 (resistance degree) [1, 8]: 1.3 | Days of survival [4, 9]: 13.0 days | Effect overcoming resistance (T/V %) [4, 10]: 116% | Rate of prolongation of life (T/C %) [4, 9]: 126%

O=C(NN=Cc1c(-c2ccccc2)nc2sc3c(n12)CCCC3)c1ccccc1 [Compound 8, 5,6,7,8-tetrahydro-2-phenyl-3-(benzoylaminoiminomethyl)imidazo[2,1-b]benzothiazole]
Resistance with VCR, VJ-300 (resistance degree) [1, 5]: 3.5 | Days of survival [2, 6]: 12.00 days | Effect overcoming resistance (T/V %) [2, 7]: 108% | Rate of prolongation of life (T/C %) [2, 6]: 115%

O=C(NN=Cc1c(-c2ccccc2)nc2sc3ccccc3n12)c1cccnc1 [Compound 14, 2-phenyl-3-[3-pyridylcarbonylaminoiminomethyl]imidazo[2,1-b]benzothiazole]
Resistance with VCR, VJ-300 (resistance degree) [1, 8]: 4.0 | Days of survival [2, 12]: 13.67 days | Effect overcoming resistance (T/V %) ([2]; VCR (100 μg/kg) + compound (10 mg/kg), vs VCR alone): 124% | Rate of prolongation of life (T/C %) [2, 12]: 131%
